Source: US20040005352A1, “Biologically functionalized porous microspheres” (priority 2002, published 2004)

Columns and labels:
[1] = biological target: T1, bacteriorhodopsin (BR) (Halobacterium salinarum, UniProt P02945); test: FITC response to illumination of bacteriorhodopsin in the microsphere membrane (flow cytometry); settings: for Activity of BR within the microsphere (proton pumping): BR in lipid bilayer on mesoporous microspheres, illumination
T1 sequence (P02945 14-262): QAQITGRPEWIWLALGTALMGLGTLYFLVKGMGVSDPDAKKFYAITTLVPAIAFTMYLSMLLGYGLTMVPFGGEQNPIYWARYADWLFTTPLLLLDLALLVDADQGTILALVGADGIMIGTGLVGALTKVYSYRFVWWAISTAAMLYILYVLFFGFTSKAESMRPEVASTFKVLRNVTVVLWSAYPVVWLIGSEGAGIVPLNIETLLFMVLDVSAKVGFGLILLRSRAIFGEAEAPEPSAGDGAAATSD
Excerpt: The next investigation was to determine whether a integral membrane protein, bacteriorhodopsin (BR) retained its activity and effect a change on the contents of the microporous microsphere. The natural activity of bacteriorhodpsin is to increase the proton concentration (i.e. pH) upon illumination with the appropriate wavelength of light (ca 510 nm).
The microspheres were then enveloped with liposomes containing 0.1-5% reconstituted bacteriorhodpsin-containing “purple membrane” from Halobacterium salinarum, in egg phosphatidyl choline.

[2] = biological target: Human DAT protein (Homo sapiens, UniProt Q01959); settings: anticipated; [3H]DA uptake, 3 min at 34° C.
Human DAT protein, sequence (Q01959 whole entry): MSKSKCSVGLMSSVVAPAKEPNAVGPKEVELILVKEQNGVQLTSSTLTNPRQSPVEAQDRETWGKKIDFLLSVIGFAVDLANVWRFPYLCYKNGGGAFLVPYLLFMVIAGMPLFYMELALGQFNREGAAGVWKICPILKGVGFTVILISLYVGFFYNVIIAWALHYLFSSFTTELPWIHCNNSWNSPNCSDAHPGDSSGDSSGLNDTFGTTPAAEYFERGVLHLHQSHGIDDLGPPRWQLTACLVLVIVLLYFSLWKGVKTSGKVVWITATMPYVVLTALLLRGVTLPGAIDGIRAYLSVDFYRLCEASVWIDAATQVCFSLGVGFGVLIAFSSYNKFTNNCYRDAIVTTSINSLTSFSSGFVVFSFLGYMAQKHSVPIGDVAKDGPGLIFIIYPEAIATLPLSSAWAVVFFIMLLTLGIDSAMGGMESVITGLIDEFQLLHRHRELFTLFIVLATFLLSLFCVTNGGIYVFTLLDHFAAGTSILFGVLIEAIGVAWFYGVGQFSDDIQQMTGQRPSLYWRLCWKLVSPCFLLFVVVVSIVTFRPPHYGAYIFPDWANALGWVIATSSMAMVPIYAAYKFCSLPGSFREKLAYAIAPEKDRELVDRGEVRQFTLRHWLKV

[3] = tested on: lipid bilayer of membrane-enclosed microspheres; type: biochemical; settings: pH 7.4

O=[N+]([O-])[O-].O=[N+]([O-])[O-].O=[N+]([O-])[O-].[Gd+3] [Gd(NO3)3, reference compound]
Effect on BR ([1]; 3 μM Gd(NO3)3): inhibitor of BR

NCCc1ccc(O)c(O)c1 [dopamine]
Vmax [2]: 9.0 pmol/10^5 cells/min

α-hemolysin
Change in Mag-Fluo-4 fluorescence intensity (mean channel fluorescence) [3]: increase in fluorescence intensity

B1: BR: integral membrane protein, light driven proton pump; purple membrane from Halobacterium salinarum (protein, UniProt P02945 14-262, looked up)
Bacteriorhodopsin: T1 sequence (P02945 14-262)
FITC intensity after several minutes of illumination ([1]; 0.1-5% BR purple membrane in egg phosphatidyl choline, white light): decreased | Activity of BR within the microsphere (proton pumping) [1]: active | Activity of BR within the microsphere (proton pumping) ([1]; listed as bacteriorhodopsin): photo-induced proton pumping
